Measurements published in patent US20050009030A1, “Histone deacetylase: novel molecular target of neurotoxicity” (priority 2002, published 2005).

Tested on: rat cerebellar granule cells
Assay: Excitotoxicity in rat cerebellar granule cells induced by NMDA/serine or kainate, measured by MTT test
Format: cell-based
Details: excitotoxicity induced by 100 μM NMDA and 10 μM serine, or by 50 μM kainate; 30 to 40% toxicity by MTT tests
Method: For this example, rat cerebellar granule cells were placed in culture, according to techniques known to those skilled in the art. Excitotoxicity was induced in these cells by two types of treatment: firstly, by the joint administration of 100 μM NMDA (N-Methyl-D-aspartic acid) and 10 μM serine, and secondly by administration of 50 μM kainate. Under the experimental conditions adopted, 30 to 40% toxicity was observed and measured using MTT tests, known to those skilled in the art.

SMILES: CC(/C=C/C(=O)NO)=C\[C@@H](C)C(=O)c1ccc(N(C)C)cc1 [trichostatin A]
- Inhibition of excitotoxicity: Inhibition of excitotoxicity can be demonstrated
